Structures are written as SMILES.

One experiment deals with breast line MDA468. The experiment in a line: In vitro cell culture growth assay (MTS), MDA468. It is filed as cell-based, human. The note with it: Homo sapiens, 72 h, MDA468 cells, three days after drug treatment. As for the experimental part: Human tumor cell lines used include prostate lines LNCap and PC3MM2, breast lines MDA468, MCF7, renal line HTB44 (A498), colon line HCT116, and ovarian line OVCAR3. Cells were plated in 96-well culture plates. One day following plating, the inhibitors were added to cells. Three days after drug treatment, viable cell densities were determined by metabolic conversion (by viable cells) of the dye MTS, a well established cell proliferation assay. The assays were performed using an assay kit purchased from Promega Corp. (Madison, Wis.) following the protocol supplied with the kit. The MTS assay results were read in a 96-well plate reader by measuring absorbance at 490 nm. The effect of each treatment was calculated as percent of control growth relative to the vehicle-treated cells grown in the same culture plate.
The term IC50 denotes the concentration at which inhibition is half-maximal. Lower therefore signals higher potency. Take `CONC(=O)Nc1ccc(-c2nc(N3CCOCC3)c3cnn(C4CCN(Cc5ccccc5)CC4)c3n2)cc1` [Compound 286, 1-{4-[1-(1-benzylpiperidin-4-yl)-4-morpholin-4-yl-1H-pyrazolo[3,4-d]pyrimidin-6-yl]phenyl}-3-methoxyurea]: it took 200 nM to reach half-maximal inhibition (IC50). This lies in the sub-micromolar range.

Take `CN1CCC(NC(=O)Nc2ccc(-c3nc(N4CCOCC4)c4cnn(C5CCN(Cc6ccccc6)CC5)c4n3)cc2)CC1` [Compound 517, 1-{4-[1-(1-benzylpiperidin-4-yl)-4-morpholin-4-yl-1H-pyrazolo[3,4-d]pyrimidin-6-yl]phenyl}-3-(1-methylpiperidin-4-yl)urea]: the IC50 was 1200 nM. This IC50 is about 6-fold higher than that of the molecule before.

Regarding `CN(C)C(=O)Nc1ccc(-c2nc(N3CCOCC3)c3cnn(C4CCN(Cc5ccccc5)CC4)c3n2)cc1` [Compound 205], the IC50 was 8000 nM.

As for `O=C(Nc1ccccc1)Nc1ccc(-c2nc(N3CCOCC3)c3cnn(C4CCN(Cc5ccccc5)CC4)c3n2)cc1` [Compound 503, 1-{4-[1-(1-benzylpiperidin-4-yl)-4-morpholin-4-yl-1H-pyrazolo[3,4-d]pyrimidin-6-yl]phenyl}-3-phenylurea], 1050 nM corresponded to half-maximal inhibition (IC50).

In turn, `O=C(Nc1ccc(-c2nc(N3CCOCC3)c3cnn(C4CCN(Cc5ccccc5)CC4)c3n2)cc1)NC1CC1` [Example 311, 1-{4-[1-(1-benzylpiperidin-4-yl)-4-morpholin-4-yl-1H-pyrazolo[3,4-d]pyrimidin-6-yl]phenyl}-3-cyclopropylurea] yielded an IC50 of 1100 nM. The IC50 values of the last two molecules are within 1.5-fold of each other.

As to `CC(C)(C)OC(=O)N1CCC(n2ncc3c(N4CCOCC4)nc(-c4ccc(NC(=O)NC5CC5)cc4)nc32)CC1` [Compound 767, tert-butyl 4-(6-{4-[(cyclopropylcarbamoyl)amino]phenyl}-4-morpholin-4-yl-1H-pyrazolo[3,4-d]pyrimidin-1-yl)piperidine-1-carboxylate], half-maximal inhibition (IC50) was put at 700 nM.

For the molecule `COC(=O)N1CCC(n2ncc3c(N4CCOCC4)nc(-c4ccc(NC(=O)Nc5ccc(N6CCN(C)CC6)cc5)cc4)nc32)CC1` [Compound 910, methyl 4-{6-[4-({[4-(4-methylpiperazin-1-yl)phenyl]carbamoyl}amino)phenyl]-4-morpholin-4-yl-1H-pyrazolo[3,4-d]pyrimidin-1-yl}piperidine-1-carboxylate], half-maximal inhibition (IC50) required 0.8 nM. This IC50 lies about 880-fold lower than the previous one.

Take `O=C(NCCO)Nc1ccc(-c2nc(N3CCOCC3)c3cnn(C4CCN(Cc5ccccc5)CC4)c3n2)cc1` [Example 265, 1-{4-[1-(1-benzylpiperidin-4-yl)-4-morpholin-4-yl-1H-pyrazolo[3,4-d]pyrimidin-6-yl]phenyl}-3-(2-hydroxyethyl)urea]: the midpoint of inhibition, the IC50, lay at 100 nM.

`CC(C)(C)OC(=O)N1CCC(n2ncc3c(N4CCOCC4)nc(-c4ccc(NC(=O)NCCF)cc4)nc32)CC1` [Compound 765, tert-butyl 4-[6-(4-{[(2-fluoroethyl)carbamoyl]amino}phenyl)-4-morpholin-4-yl-1H-pyrazolo[3,4-d]pyrimidin-1-yl]piperidine-1-carboxylate] displayed an IC50 of 360 nM. This IC50 is about 3.6-fold higher than that of the molecule before.

`O=C(Nc1ccc(-c2nc(N3CCOCC3)c3cnn(C4CCN(Cc5cccnc5)CC4)c3n2)cc1)OCCO` [Compound 924, 2-hydroxyethyl (4-{4-morpholin-4-yl-1-[1-(pyridin-3-ylmethyl)piperidin-4-yl]-1H-pyrazolo[3,4-d]pyrimidin-6-yl}phenyl)carbamate] registered an IC50 of 110 nM. This IC50 is about 3.3-fold lower than that of the molecule before.

Regarding `O=C(Nc1ccc(-c2nc(N3CCOCC3)c3cnn(C4CCN(Cc5ccccc5)CC4)c3n2)cc1)Nc1ncc[nH]1` [Compound 570, 1-{4-[1-(1-benzylpiperidin-4-yl)-4-morpholin-4-yl-1H-pyrazolo[3,4-d]pyrimidin-6-yl]phenyl}-3-(1H-imidazol-2-yl)urea], the IC50 is 3500 nM.

Take `CN1CCC(NC(=O)Nc2ccc(-c3nc(N4CCOCC4)c4cnn(C5CCN(Cc6ccccc6)CC5)c4n3)cc2)CC1` [Compound 272]: the IC50 was 1200 nM.

In turn, `O=C(NCCF)Nc1ccc(-c2nc(N3CCOCC3)c3cnn(C4CCN(Cc5ccccc5)CC4)c3n2)cc1` [Compound 534, 1-{4-[1-(1-benzylpiperidin-4-yl)-4-morpholin-4-yl-1H-pyrazolo[3,4-d]pyrimidin-6-yl]phenyl}-3-(2-fluoroethyl)urea] came in with an IC50 of 27.4 nM.

In turn, `CNC(=O)Nc1ccc(-c2nc(N3CCOCC3)c3cnn(C4CCN(Cc5ccccc5)CC4)c3n2)cc1` [Example 206, N-{4-[1-(1-benzylpiperidin-4-yl)-4-morpholin-4-yl-1H-pyrazolo[3,4-d]pyrimidin-6-yl]phenyl}-N′-methylurea] showed an IC50 of 100 nM.

`CNC(=O)Cc1ccc(-c2nc(N3CCOCC3)c3cnn(C4CCN(Cc5ccccc5)CC4)c3n2)cc1` [Compound 371, 2-{4-[1-(1-benzylpiperidin-4-yl)-4-morpholin-4-yl-1H-pyrazolo[3,4-d]pyrimidin-6-yl]phenyl}-N-methylacetamide] displayed an IC50 of 10000 nM.

Molecule `COC(=O)Nc1ccc(-c2nc(N3CCOCC3)c3cnn(C4CCN(Cc5ccccc5)CC4)c3n2)cc1` [Example 154, methyl {4-[1-(1-benzylpiperidin-4-yl)-4-morpholin-4-yl-1H-pyrazolo[3,4-d]pyrimidin-6-yl]phenyl}carbamate] gave an IC50 of 3000 nM.

Molecule `CNC(=O)Nc1ccc(-c2nc(N3CCOCC3)c3cnn(C4CCN(C(=O)OC)CC4)c3n2)cc1` [Example 476, methyl 4-(6-{4-[(methylcarbamoyl)amino]phenyl}-4-morpholin-4-yl-1H-pyrazolo[3,4-d]pyrimidin-1-yl)piperidine-1-carboxylate] showed an IC50 of 100 nM.

Regarding `COC(=O)N1CCC(n2ncc3c(N4CCOCC4)nc(-c4ccc(N)cc4)nc32)CC1` [Compound 741, methyl 4-[6-(4-aminophenyl)-4-morpholin-4-yl-1H-pyrazolo[3,4-d]pyrimidin-1-yl]piperidine-1-carboxylate], the midpoint of inhibition, the IC50, lay at 12000 nM.

In turn, `O=C(Nc1ccccc1)Nc1ccc(-c2nc(N3CCOCC3)c3cnn(C4CCN(Cc5ccccc5)CC4)c3n2)cc1` [Example 257, 1-{4-[1-(1-benzylpiperidin-4-yl)-4-morpholin-4-yl-1H-pyrazolo[3,4-d]pyrimidin-6-yl]phenyl}-3-phenylurea] yielded an IC50 of 1100 nM.

`COC(=O)N1CCC(n2ncc3c(N4CCOCC4)nc(-c4ccc(NC(=O)NCCF)cc4)nc32)CC1` [Compound 732, methyl 4-[6-(4-{[(2-fluoroethyl)carbamoyl]amino}phenyl)-4-morpholin-4-yl-1H-pyrazolo[3,4-d]pyrimidin-1-yl]piperidine-1-carboxylate] had an IC50 of 90 nM.

The molecule `CONC(=O)Nc1ccc(-c2nc(N3CCOCC3)c3cnn(C4CCN(Cc5ccccc5)CC4)c3n2)cc1` [Compound 532, 1-{4-[1-(1-benzylpiperidin-4-yl)-4-morpholin-4-yl-1H-pyrazolo[3,4-d]pyrimidin-6-yl]phenyl}-3-methoxyurea] yielded an IC50 of 160 nM.

For the molecule `O=C(NCCO)Nc1ccc(-c2nc(N3CCOCC3)c3cnn(C4CCN(Cc5ccccc5)CC4)c3n2)cc1` [Compound 510, 1-{4-[1-(1-benzylpiperidin-4-yl)-4-morpholin-4-yl-1H-pyrazolo[3,4-d]pyrimidin-6-yl]phenyl}-3-(2-hydroxyethyl)urea], the IC50 amounted to 50 nM.

As to `COC(=O)Nc1ccc(-c2nc(N3CCOCC3)c3cnn(C4CCN(Cc5cccnc5)CC4)c3n2)cc1` [Example 209, methyl (4-{4-morpholin-4-yl-1-[1-(pyridin-3-ylmethyl)piperidin-4-yl]-1H-pyrazolo[3,4-d]pyrimidin-6-yl}phenyl)carbamate], the IC50 is 1500 nM. This IC50 lies about 30-fold higher than the previous one.

`COC(=O)N1CCC(n2ncc3c(N4CCOCC4)nc(-c4ccc(NC(=O)Nc5ccc(CCN6CCOCC6)cc5)cc4)nc32)CC1` [Compound 918, methyl 4-{4-morpholin-4-yl-6-[4-({[4-(2-morpholin-4-ylethyl)phenyl]carbamoyl}amino)phenyl]-1H-pyrazolo[3,4-d]pyrimidin-1-yl}piperidine-1-carboxylate] gave an IC50 of 180 nM. Against the preceding molecule, the IC50 is about 8.3-fold lower.

In the case of `COC(=O)N1CCC(n2ncc3c(N4CCOCC4)nc(-c4ccc(NC(=O)Nc5ccc(CCN6CCN(C)CC6)cc5)cc4)nc32)CC1` [Compound 917, methyl 4-(6-{4-[({4-[2-(4-methylpiperazin-1-yl)ethyl]phenyl}carbamoyl)amino]phenyl}-4-morpholin-4-yl-1H-pyrazolo[3,4-d]pyrimidin-1-yl)piperidine-1-carboxylate], the IC50 was 60 nM.

`CN(C)CCNC(=O)Nc1ccc(-c2nc(N3CCOCC3)c3cnn(C4CCN(Cc5ccccc5)CC4)c3n2)cc1` [Compound 268, 1-{4-[1-(1-benzylpiperidin-4-yl)-4-morpholin-4-yl-1H-pyrazolo[3,4-d]pyrimidin-6-yl]phenyl}-3-[2-(dimethylamino)ethyl]urea] showed an IC50 of 600 nM.

Take `O=C(Nc1ccc(-c2nc(N3CCOCC3)c3cnn(C4CCN(Cc5ccccc5)CC4)c3n2)cc1)NC1CC1` [Compound 556, 1-{4-[1-(1-benzylpiperidin-4-yl)-4-morpholin-4-yl-1H-pyrazolo[3,4-d]pyrimidin-6-yl]phenyl}-3-cyclopropylurea]: half-maximal inhibition (IC50) was put at 1050 nM.

With `CCNC(=O)Nc1ccc(-c2nc(N3CCOCC3)c3cnn(C4CCN(Cc5ccccc5)CC4)c3n2)cc1` [Example 253, 1-{4-[1-(1-benzylpiperidin-4-yl)-4-morpholin-4-yl-1H-pyrazolo[3,4-d]pyrimidin-6-yl]phenyl}-3-ethylurea], the IC50 turned out to be 400 nM.

The same experiment, now with this note: MDA468 cells, three days after drug treatment.
Molecule `CNC(=O)Nc1ccc(-c2nc(N3CCOCC3)c3cnn(C4CCN(C(=O)OC(C)(C)C)CC4)c3n2)cc1` [Compound 582, tert-butyl 4-(6-{4-[(methylcarbamoyl)amino]phenyl}-4-morpholin-4-yl-1H-pyrazolo[3,4-d]pyrimidin-1-yl)piperidine-1-carboxylate] had an IC50 of 210 nM. This lies in the sub-micromolar range.

These data come from patent US20080234262A1 (Wyeth, priority 2007, published 2008).
